Experimental data published in PubChem BioAssay (NCI).
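96-well plates; 48 h exposure; 5 concentrations. Endpoints by linear interpolation between flanking doses. Not reached: highest tested concentration assigned. GI50 marks 50% less growth. TGI marks complete inhibition of growth.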

What was measured:
Assay in all cases: NCI anticancer screen, dose series, 48 h
[1] = test system: OVCAR-8 ovarian
[2] = test system: NCI-H23 lung
[3] = test system: HOP-92 NSCLC
[4] = test system: HOP-62 NSCLC
[5] = test system: SW-620 colon
[6] = test system: MDA-MB-231 breast
[7] = test system: DU-145 prostate
[8] = test system: SR leukemia
[9] = test system: MOLT-4 leukemia
[10] = test system: UACC-257 melanoma

| Compound | TGI [1] [µM] | TGI [2] [µM] | TGI [3] [µM] | TGI [4] [µM] | TGI [5] [µM] | TGI [6] [µM] | TGI [7] [µM] | TGI [8] [µM] | TGI [9] [µM] | TGI [10] [µM] | GI50 [1] [µM] | GI50 [2] [µM] | GI50 [3] [µM] | GI50 [4] [µM] | GI50 [5] [µM] | GI50 [6] [µM] | GI50 [7] [µM] | GI50 [8] [µM] | GI50 [10] [µM] |
| --- | --- | --- | --- | --- | --- | --- | --- | --- | --- | --- | --- | --- | --- | --- | --- | --- | --- | --- | --- |
| COC(=O)C1=C(C)NC(C)=C(C(=O)OC)C1c1nc2sccn2c1[N+](=O)[O-] | > 100 | > 100 | > 100 | > 100 | > 100 | > 100 | > 100 | > 100 | > 100 | > 100 |  |  |  |  |  |  |  |  |  |
| Nc1ccc(S(=O)(=O)Nc2nccs2)cc1 | > 100 | > 100 |  | > 100 | > 100 | > 100 | > 100 | > 100 | > 100 | > 100 |  |  |  |  |  |  |  |  |  |
| S=C(Nc1ccc2c(c1)oc1ccccc12)c1cccnc1 | > 100 | > 100 | > 100 | 32.9 | > 100 | > 100 | > 100 | > 100 | > 100 |  |  |  |  |  |  |  |  |  |  |
| C=C1CN2CC(=C)CN(C1)CS(=O)(=O)N1CC(=C)CN(CC(=C)C1)S(=O)(=O)N1CC(=C)CN(CC(=C)C1)S(=O)(=O)C2 | > 100 | > 100 | > 100 | 53.7 | > 100 | 92.1 | > 100 | > 100 | > 100 | 94.4 |  |  |  |  |  |  |  |  |  |
| CC(C)NC(=O)OCCN=c1c2ccccc2ccc2ccccc12 | > 100 | > 100 | 88 | > 100 | > 100 | > 100 | > 100 | 80.6 | 71.2 | > 100 |  |  |  |  |  |  |  |  |  |
| CN(C)c1ccc(C2SCC(=O)N2c2ccc(Oc3ccc(Cl)cc3)c(Cl)c2)cc1 (configuration not stated) | 86.4 | 45.4 | 45.8 | 41 | > 100 | 43.3 | 57.2 | 57.3 | > 100 | > 100 |  |  |  |  |  |  |  |  |  |
| Cc1cc(S(=O)(=O)Nc2nc3cc(-c4ccc(Cl)cc4)sc3c(=O)n2N)c(S)cc1Cl | > 100 | > 100 | > 100 | > 100 | > 100 | > 100 | > 100 |  | 55.3 | > 100 |  |  |  |  |  |  |  |  |  |
| CCOC(=O)c1ccc(C)c(N=NN(C)C)c1 | > 100 | > 100 | > 100 | > 100 | > 100 |  |  | > 100 | > 100 | > 100 |  |  |  |  |  |  |  |  |  |
| COC1C=COC2(C)Oc3c(C)c(O)c4c(O)c(c(C5SCCS5)c(O)c4c3C2=O)NC(=O)C(C)=C/C=C\C(C)C2OC(C)(C)OC(C2C)C(C)C(OC(C)=O)C1C (configuration not stated) | 28.5 | 80.9 | 24.9 | 74.4 | > 100 | 45.7 | 59.8 |  | > 100 | 7.89 |  |  |  |  |  |  |  |  |  |
| COc1ccc(-c2nn(-c3ccc(NC(=O)Nc4cc(C(F)(F)F)cc(C(F)(F)F)c4)cc3)cc2-c2ccncc2)cc1Cl | > 100 | > 100 | 4.35 | 15.1 | > 100 | 4.44 | > 100 | 6.56 |  | 12.5 | 3.27 | 2.78 | 1.06 | 3.68 | 2.99 | 1.81 | 4.25 | 2.54 | 3.5 |
| Cc1cc(NCc2ccccc2)c2ccccc2[n+]1CCCCCCCCCC[n+]1c(C)cc(NCc2ccccc2)c2ccccc21 | 6.71 | 1.86 | 2.25 |  | 4.31 | 1.74 | 10.9 |  |  | 1.31 |  |  |  |  |  |  |  |  |  |
| COC(=O)C1CCCN1C(=O)C(Cc1cn(S(=O)(=O)c2ccc(C)cc2)cn1)NC(=O)OC(C)(C)C (configuration not stated) | > 100 | > 100 | > 100 | > 100 | > 100 | > 100 |  | > 100 | > 100 | > 100 |  |  |  |  |  |  |  |  |  |
| CSc1cnc2ccccc2c1SC1CN(Cc2ccccc2)c2ccccc2C1=O (configuration not stated) |  | > 100 | > 100 | > 100 | > 100 | > 100 | > 100 | > 100 | > 100 | > 100 |  |  |  |  |  |  |  |  |  |
| Cc1ccc(S(=O)(=O)NC(=O)N[C@@H](Cc2cnc[nH]2)C(=O)O)cc1 | > 100 | > 100 | > 100 | > 100 | > 100 | > 100 | > 100 |  | > 100 | > 100 |  |  |  |  |  |  |  |  |  |
| Nc1ccn(C2OC(CO)C(O)C2O)c(=O)c1 (configuration not stated) | > 625 | > 625 | > 625 | 403 | > 625 |  |  |  |  |  |  |  |  |  |  |  |  |  |  |
| CC1=NNC(=O)C1C(CC(=O)c1c[nH]c2ccccc12)C(=O)O (configuration not stated) | > 100 | > 100 | > 100 | > 100 | > 100 | > 100 | > 100 |  | > 100 | > 100 |  |  |  |  |  |  |  |  |  |
| Cc1ccc(S(=O)(=O)C(C#N)c2nc3ccccc3nc2-n2ccnc2)cc1 (configuration not stated) | > 100 | > 100 | > 100 | > 100 |  |  |  |  | > 100 | > 100 |  |  |  |  |  |  |  |  |  |
| COc1ccc(C2COc3cc(O)c(O)cc3C2)cc1 (configuration not stated) | 63.3 | 159 | 24 | 232 |  |  |  |  | 24.6 | 181 |  |  |  |  |  |  |  |  |  |
| CC(C)CC(O)P(=O)(O)O (configuration not stated) |  |  |  | > 100 | > 100 | > 100 | > 100 |  | > 100 | > 100 |  |  |  |  |  |  |  |  |  |
| Cn1c2ccccc2c(=O)c2cccc(C(=O)NC(CCCN=C(N)N)C(=O)O)c21 (configuration not stated) | > 100 | > 100 |  | > 100 | > 100 | > 100 | > 100 |  | > 100 | > 100 |  |  |  |  |  |  |  |  |  |
| On1c(-c2ccccc2)nc2ccccc2c1=S | > 100 | > 100 | > 100 | > 100 | > 100 | > 100 | > 100 |  | 11.2 | > 100 |  |  |  |  |  |  |  |  |  |
| Cc1ccc(O)c(-c2cscn2)c1 | > 100 | > 100 | > 100 | > 100 | > 100 |  |  | > 100 | > 100 | > 100 |  |  |  |  |  |  |  |  |  |
| NNC(=O)CSc1nc2ccccc2c(=O)n1N | > 100 | > 100 | 57.7 |  | > 100 | 61.2 | > 100 | > 100 | > 100 | > 100 |  |  |  |  |  |  |  |  |  |
